Experimental data published in publication PMC7216583 (Parasites & Vectors, 2020).
Counter-ions that a name gives are not always drawn. Like-named read-outs stand apart in the source and are kept apart here.

Key:
If = test system: If; design: method as in S-inhibitor; settings: ref S-inhibitor; cited from earlier work
[1] = test system: Toxoplasma gondii RH-2F tachyzoites; experiment: microbe, parasite or virus in culture; settings: 72 h
[2] = test system: Toxoplasma gondii RH-2F tachyzoites; settings: preliminary screen, mean
[3] = test system: cleavage of Tyr from Met-enkephalin; design: method as in S-inhibitor; settings: ref S-inhibitor; read-out: IC50, inhibition of cleavage of Tyr from Met-enkephalin; cited from earlier work
ERβ = test system: ERβ; design: method as in S-inhibitor; settings: ref S-inhibitor; read-out: IC50, ERβ binding; cited from earlier work
ERα = settings: read-out: IC50, ERα binding; ref S-inhibitor; cited from earlier work
CDK2/cyclin E = test system: CDK2/cyclin E; design: method as in S-inhibitor; settings: ref S-inhibitor; cited from earlier work
CDK1/cyclin B = test system: CDK1/cyclin B; design: method as in S-inhibitor; settings: ref S-inhibitor; cited from earlier work
Abl = test system: Abl; design: method as in library vendor description; settings: ref library vendor description; cited from earlier work
S217Q PFV IN = test system: S217Q PFV IN; design: method as in S-inhibitor; settings: ref S-inhibitor; cited from earlier work
WT PFV IN = test system: WT PFV IN; design: method as in S-inhibitor; settings: ref S-inhibitor; cited from earlier work
PDE4 = test system: PDE4; design: method as in S-inhibitor; settings: ref S-inhibitor; cited from earlier work
smoothened [4] = test system: smoothened; design: method as in S-inhibitor; settings: human; ref S-inhibitor; cited from earlier work
smoothened [5] = test system: smoothened; design: method as in S-inhibitor; settings: mouse; ref S-inhibitor; cited from earlier work
[6] = molecular target: serotonin-norepinephrine reuptake; settings: read-out: Ki, serotonin-norepinephrine reuptake inhibitor; ref S-inhibitor; cited from earlier work
in vitro = settings: human; for viability at 72 h: Host viability (%) mean
Flt4 = test system: Flt4; design: method as in S-inhibitor; settings: ref S-inhibitor; cited from earlier work
[7] = test system: voltage-gated sodium channels; design: method as in S-inhibitor; settings: ref S-inhibitor; cited from earlier work
FAK = settings: read-out: IC50, FAK; ref S-inhibitor; cited from earlier work
γ-secretase = molecular target: γ-secretase; design: method as in S-inhibitor; settings: ref S-inhibitor, cited from earlier work
Notch signaling = test system: Notch signaling; design: method as in S-inhibitor; settings: ref S-inhibitor; cited from earlier work
D4 receptor = settings: read-out: Ki, D4 receptor; ref S-inhibitor; cited from earlier work
D3 receptor = settings: read-out: Ki, D3 receptor; ref S-inhibitor; cited from earlier work
D2L receptor = settings: read-out: Ki, D2L receptor; ref S-inhibitor; cited from earlier work
D2S receptor = settings: read-out: Ki, D2S receptor; ref S-inhibitor; cited from earlier work
phosphodiesterase = molecular target: phosphodiesterase; design: method as in S-inhibitor; settings: ref S-inhibitor; cited from earlier work
reverse transcriptase = settings: read-out: IC50, reverse transcriptase; ref S-inhibitor; cited from earlier work
GSK-3β = test system: GSK-3β; design: method as in S-inhibitor; settings: ref S-inhibitor; cited from earlier work
MEK1/2 = test system: MEK1/2; design: method as in S-inhibitor; settings: ref S-inhibitor; cited from earlier work
HIV-2 ROD = test system: HIV-2 ROD; design: method as in S-inhibitor; settings: ref S-inhibitor; cited from earlier work
HIV-1 IIIB = test system: HIV-1 IIIB; design: method as in S-inhibitor; settings: ref S-inhibitor; cited from earlier work
HIV-2 EHO = test system: HIV-2 EHO; design: method as in S-inhibitor; settings: ref S-inhibitor; cited from earlier work
CDK6 = test system: CDK6; design: method as in S-inhibitor; settings: ref S-inhibitor; cited from earlier work
CDK4 = test system: CDK4; design: method as in S-inhibitor; settings: ref S-inhibitor; cited from earlier work
EGFR = test system: EGFR; design: method as in library vendor description; settings: ref library vendor description; cited from earlier work
ErbB2 = test system: ErbB2; design: method as in library vendor description; settings: ref library vendor description; cited from earlier work
(Na,K)-ATPase = molecular target: (Na,K)-ATPase; design: method as in S-inhibitor; settings: one value printed for both enzymes; ref S-inhibitor; cited from earlier work
alkaline phosphatase = settings: read-out: IC50, alkaline phosphatase; one value printed for both enzymes; ref S-inhibitor; cited from earlier work
MAPKAP-K1b = test system: MAPKAP-K1b; design: method as in S-inhibitor; settings: ref S-inhibitor; cited from earlier work
S6K1 = test system: S6K1; design: method as in S-inhibitor; settings: ref S-inhibitor; cited from earlier work
PKBα = test system: PKBα; design: method as in S-inhibitor; settings: ref S-inhibitor; cited from earlier work
MSK1 = test system: MSK1; design: method as in S-inhibitor; settings: ref S-inhibitor; cited from earlier work
PKA = test system: PKA; design: method as in S-inhibitor; settings: ref S-inhibitor; cited from earlier work
dopamine D2 = molecular target: dopamine D2; design: method as in S-inhibitor; settings: ref S-inhibitor; cited from earlier work
5-HT2 receptor = molecular target: 5-HT2 receptor; design: method as in S-inhibitor; settings: ref S-inhibitor; read-out: Ki, serotonin 5-HT2; cited from earlier work
[8] = read-out: Parasite inhibition (%) mean, preliminary screen, mean
[9] = read-out: Parasite inhibition (%) mean

Compound: COc1cc2c(cc1OC)CC(=O)N(CCCN(C)C[C@@H]1Cc3cc(OC)c(OC)cc31)CC2 [Ivabradine HCl (Procoralan)]
- IC50 (If): 2900 nM
- inhibition of growth at 5 µM [1, 8]: 0.6%

Compound: Bacitracin zinc
- Parasite inhibition (%) mean [2]: 9.0%
- IC50 [3]: 10000 nM

Compound: Cc1c(-c2ccc(O)cc2)n(Cc2ccc(OCCN3CCCCCC3)cc2)c2ccc(O)cc12 [Bazedoxifene HCl]
- inhibition of growth at 5 µM [1, 8]: -12.8%

Compound: CCCCOc1c(C(=O)c2c(F)cc(C)cc2F)c[nH]c2nncc1-2 [BMS-265246]
- IC50 (CDK2/cyclin E): 9 nM
- IC50 (CDK1/cyclin B): 6 nM
- inhibition of growth at 5 µM [1, 8]: 7.3%

Compound: COc1cc(Nc2c(C#N)cnc3cc(OCCCN4CCN(C)CC4)c(OC)cc23)c(Cl)cc1Cl [Bosutinib (SKI-606)]
- inhibition of growth at 5 µM [1, 8]: 22.4%

Compound: Cc1nnc(C(=O)NC(C)(C)c2nc(C(=O)NCc3ccc(F)cc3)c(O)c(=O)n2C)o1 [Raltegravir (MK-0518)]
- IC50 (S217Q PFV IN): 40 nM
- IC50 (WT PFV IN): 90 nM
- inhibition of growth at 5 µM [1, 8]: 0.8%

Compound: O=C(Nc1c(Cl)cncc1Cl)c1ccc(OC(F)F)c(OCC2CC2)c1 [Roflumilast (Daxas)]
- IC50 (PDE4): 0.2 to 4.3 nM
- inhibition of growth at 5 µM [1, 8]: -0.2%

Compound: Cc1c(C(=O)Nc2ccc(N3C[C@@H](C)O[C@@H](C)C3)nc2)cccc1-c1ccc(OC(F)(F)F)cc1 [LDE225 (NVP-LDE225, Erismodegib)]
- IC50 (smoothened [4]): 2.5 nM
- IC50 (smoothened [5]): 1.3 nM
- inhibition of growth at 5 µM [1, 8]: -3.8%

Compound: CNCC[C@H](Oc1cccc2ccccc12)c1cccs1 [Duloxetine HCl (Cymbalta)]
- Ki [6]: 4.6 nM
- inhibition of growth at 5 µM [1, 9]: 30.9%

Compound: Cc1cc(Nc2cc(N3CCN(C)CC3)nc(/C=C/c3ccccc3)n2)n[nH]1 [ENMD-2076 L-(+)-Tartaric acid]
- viability at 72 h (in vitro; preliminary screen, mean): 35.5%
- IC50 (Flt4): 15.9 nM

Compound: CCCOc1ccc(C(=O)OCCN(CC)CC)cc1N [Proparacaine HCl]
- ED50, voltage-gated sodium channels [7]: Proparacaine HCl is a voltage-gated sodium channels antagonist with ED50 of 3.4 mM.
- inhibition of growth at 5 µM [1, 8]: 2.4%

Compound: CS(=O)(=O)c1cccc(CNc2nc(Nc3ccc4c(c3)CCC(=O)N4)ncc2C(F)(F)F)c1 [PF 573228]
- IC50 (FAK): 4 nM
- inhibition of growth at 5 µM [1, 8]: 5%

Compound: CC(C)[C@H](O)C(=O)N[C@@H](C)C(=O)N[C@H]1C(=O)N(C)CCc2ccccc21 [Semagacestat (LY450139)]
- IC50 (γ-secretase; Aβ38, read-out: IC50, γ-secretase, Aβ38): 12 nM
- IC50 (γ-secretase; Aβ40, read-out: IC50, γ-secretase, Aβ40): 12.1 nM
- IC50 (γ-secretase; Aβ42, read-out: IC50, γ-secretase, Aβ42): 10.9 nM
- IC50 (Notch signaling): 14.1 nM
- inhibition of growth at 5 µM [1, 8]: -9.8%

Compound: CCCN[C@H]1CCc2nc(N)sc2C1 [Pramipexole 2HCl monohydrate]
- Ki (D4 receptor): 5.1 nM
- Ki (D3 receptor): 0.5 nM
- Ki (D2L receptor): 2.2 nM
- inhibition of growth at 5 µM [1, 9]: -9.5%

Compound: Cn1c(=O)c2[nH]cnc2n(C)c1=O.Cn1c(=O)c2[nH]cnc2n(C)c1=O.NCCN [Aminophylline (Truphylline)]
- Parasite inhibition (%) mean [2]: 0.8%
- IC50 (phosphodiesterase): 120000 nM

Compound: Nc1nc(=O)n([C@@H]2CS[C@H](CO)O2)cc1F [Emtricitabine (Emtriva)]
- IC50 (reverse transcriptase): 27700 nM
- inhibition of growth at 5 µM [1, 9]: 0.4%

Compound: Nc1cccc(-c2cc3c(Oc4cccc(O)c4)ncnc3[nH]2)c1 [TWS119]
- inhibition of growth at 5 µM [1, 8]: 40.8%
- IC50 (GSK-3β): 30 nM

Compound: Cc1cc(C(=O)NOCCO)c(Nc2ccc(I)cc2F)n(C)c1=O [AZD8330]
- IC50 (MEK1/2): 7 nM
- inhibition of growth at 5 µM [1, 8]: -18.8%

Compound: COc1cc2c(cc1Cc1cccc(Cl)c1F)c(=O)c(C(=O)O)cn2[C@H](CO)C(C)C [Elvitegravir (GS-9137)]
- IC50 (HIV-2 ROD): 1.4 nM
- IC50 (HIV-1 IIIB): 0.7 nM
- IC50 (HIV-2 EHO): 2.8 nM
- inhibition of growth at 5 µM [1, 8]: 0.7%

Compound: CC(=O)c1c(C)c2cnc(Nc3ccc(N4CCNCC4)cn3)nc2n(C2CCCC2)c1=O.O=S(=O)(O)CCO [PD 0332991 (Palbociclib) Isethionate]
- Parasite inhibition (%) mean [2]: 2.6%
- IC50 (CDK6): 16 nM

Compound: C=CC(=O)Nc1cc2c(Nc3ccc(F)c(Cl)c3)ncnc2cc1OCCCN1CCOCC1 [CI-1033 (Canertinib)]
- inhibition of growth at 5 µM [1, 8]: -5.8%

Compound: [Na+].[Na+].[Na+].[O]=[V]([O-])([O-])[O-] [Sodium orthovanadate]
- Parasite inhibition (%) mean [2]: 31.8%
- IC50 ((Na,K)-ATPase): 10000 nM
- IC50 (alkaline phosphatase): 10000 nM

Compound: O=S(=O)(NCCNC/C=C/c1ccc(Br)cc1)c1cccc2cnccc12 [H 89 2HCl, reference compound]
- viability at 72 h, 5 µM (in vitro; Host viability (%) Mean ± SD): 89.4 ± 4.6%
- viability at 72 h (in vitro): 89.4%
- IC50 (MAPKAP-K1b): 2800 nM
- IC50 (S6K1): 80 nM
- IC50 (MSK1): 120 nM
- IC50 (PKA): 135 nM
- inhibition at 5 µM ([1]; read-out: Parasite inhibition (%) Mean ± SD): 83.5 ± 1.8%

Compound: CCN1CCN(c2cc(-c3ccc(F)cc3)c3c(n2)CCCCCC3)CC1 [Blonanserin (Lonasen)]
- viability at 72 h (in vitro): 88.3%
- Ki (dopamine D2): 14.8 nM
- Ki (5-HT2 receptor): 3.98 nM
- inhibition of growth at 5 µM [1, 8]: 82.1%
